Earlier results as cited in patent US20150104528A1, “TREATMENT FOR DEPRESSION AND OTHER MENTAL CONDITIONS WITH SYNTHETIC ISOTOPE-MODIFIED LITHIUM” (priority 2013, published 2015).

Tested on: female mother rats
Details: female mother rats fed the substance; same dosage level for both groups

[6Li] [lithium-6]
state of alertness compared to control rats fed a placebo: very high
